Experiment [1] addresses T1, Vitamin D3 receptor (Sus scrofa) (UniProt A3RGC1).
T1 sequence (whole entry): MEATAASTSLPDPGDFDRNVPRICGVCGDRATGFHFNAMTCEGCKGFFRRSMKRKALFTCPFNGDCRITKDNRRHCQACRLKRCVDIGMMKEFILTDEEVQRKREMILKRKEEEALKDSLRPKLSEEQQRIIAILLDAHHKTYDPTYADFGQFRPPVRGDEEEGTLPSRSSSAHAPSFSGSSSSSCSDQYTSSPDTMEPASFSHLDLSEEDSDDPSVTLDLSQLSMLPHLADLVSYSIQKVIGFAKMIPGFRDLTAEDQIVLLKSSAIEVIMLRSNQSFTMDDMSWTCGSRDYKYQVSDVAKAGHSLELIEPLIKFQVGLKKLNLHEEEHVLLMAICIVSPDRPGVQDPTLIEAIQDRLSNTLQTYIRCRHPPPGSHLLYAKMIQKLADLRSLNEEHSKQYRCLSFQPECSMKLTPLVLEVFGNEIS
Description: Affinity for pig intestinal mucosa Vitamin D3 receptor (VDR). It counts as tissue-based.

Experiment [2] deals with T2, Vitamin D3 receptor (Homo sapiens) (UniProt P11473).
T2 sequence (whole entry): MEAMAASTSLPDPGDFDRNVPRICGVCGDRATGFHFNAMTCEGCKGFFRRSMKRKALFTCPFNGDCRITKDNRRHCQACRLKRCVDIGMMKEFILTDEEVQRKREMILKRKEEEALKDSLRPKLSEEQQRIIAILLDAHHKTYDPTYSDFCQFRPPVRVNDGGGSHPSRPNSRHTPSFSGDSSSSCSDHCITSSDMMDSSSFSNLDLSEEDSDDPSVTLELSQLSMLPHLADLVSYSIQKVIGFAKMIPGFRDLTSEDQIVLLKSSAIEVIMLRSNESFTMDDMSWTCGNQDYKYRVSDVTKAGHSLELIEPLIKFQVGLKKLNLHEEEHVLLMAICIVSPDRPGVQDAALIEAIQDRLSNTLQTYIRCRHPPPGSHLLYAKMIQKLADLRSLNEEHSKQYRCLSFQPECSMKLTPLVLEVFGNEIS
Description: Relative affinity compared to Calcitriol in displacement of [3H]1H]1-alpha,25(OH)2D3 from vitamin D3 receptor in […] cells. It is filed as cell-based.

Experiment [3] deals with T2, Vitamin D3 receptor (Homo sapiens). Briefly: Relative affinity compared to Calcitriol in displacement of [3H]1H]1-alpha,25(OH)2D3 from Vitamin D3 receptor in HL-60 cells. It is filed as functional, cell-based. Background: Loss of bound radioactivity is the signal in a displacement assay; it reports binding, not function.
For experiment [4], the system named is keratinocytes (Homo sapiens). Briefly: Antiproliferative activity relative to Calcitriol in Keratinocyte cell lines.
Another experiment deals with Mus musculus. Description: In vivo calcemic effect was tested in vitamin D replete normal […] mice by measuring calcium levels in serum. It is filed as functional. More on the design: reference not given here.
In experiment [5] the target is T2, Vitamin D3 receptor (Homo sapiens). Description: Relative affinity compared to Calcitriol in displacement of [3H]1H]1-alpha,25(OH)2D3 from vitamin D receptor (VDR) in MG-63 cells. It is filed as functional, cell-based.

Data on 5 molecules can be found in ChEMBL document CHEMBL1129899, “Synthesis of CD-ring modified 1,25-dihydroxy vitamin D analogues: Five-membered D-ring analogues” (1997).

Consider `C=C1/C(=C/C=C/[C@@H]2CC[C@H]([C@H](C)CCCC(C)(C)O)[C@@]2(C)CCC)C[C@@H](O)C[C@@H]1O`, for which the Activity is 80 in experiment [1]; 1% in experiment [2]; 10% in experiment [3]; 85% in experiment [4]; 1 with Mus musculus; 8% in experiment [5].
Turning to `C=C1/C(=C/C=C/[C@@H]2CC[C@H]([C@H](C)CCCC(C)(C)O)C2(C)C)C[C@@H](O)C[C@@H]1O`, the Activity in experiment [1] is 80; in experiment [2] it was 85%; in experiment [3], 85%; in experiment [4], 90%; in the experiment on Mus musculus, 0.3; in experiment [5] it was 30%.
For the molecule `C=C1/C(=C/C=C/[C@@H]2CC[C@H]([C@@H](C)CC#CC(C)(C)O)C2(C)C)C[C@@H](O)C[C@@H]1O`, the Activity was 40 in experiment [1]; 150% in experiment [2]; 100% in experiment [3]; 200% in experiment [4]; 0.5 in the experiment on Mus musculus; 10% in experiment [5].
Consider `C=C1/C(=C/C=C/[C@@H]2CC[C@H]([C@@H](C)CCCC(C)(C)O)C2(C)C)C[C@@H](O)C[C@@H]1O`, for which the Activity in experiment [1] was 70; in experiment [2], 85%; in experiment [3], 100%; in experiment [4], 100%; in the experiment on Mus musculus, 3; in experiment [5], 10%.
With `C=C1/C(=C/C=C/[C@@H]2CC[C@H]([C@H](C)CC#CC(C)(C)O)C2(C)C)C[C@@H](O)C[C@@H]1O`, the Activity in experiment [1] was 40; in experiment [2], 200%; in experiment [3], 100%; in the experiment on Mus musculus, 0.25.
